Data reported in patent US20250346593A1, “IMIDAZO(1,2-1)PYRIDINE DERIVATIVES AS RIPK2 INHIBITORS” (Interline Therapeutics, Inc., priority 2022, published 2025).
Where two headings read alike, the source gives them in different places.

Experiments:
[1] = tested on: NF-κB pathway (SEAP) in THP1-Dual cells; assay: THP-1 Dual cell SEAP assay (L18-MDP stimulated); assay type: cell-based; conditions: Homo sapiens, THP1-Dual, read-out: NFkB THP1 IC50
[2] = biological target: GST-RIPK2 fusion protein (human RIPK2 amino acids 1-310) (Homo sapiens (Human), UniProt O43353); assay: RIPK2 binding competition assay (TR-FRET, Tracer 199)
Sequence of GST-RIPK2 fusion protein (human RIPK2 amino acids 1-310) (O43353 1-310): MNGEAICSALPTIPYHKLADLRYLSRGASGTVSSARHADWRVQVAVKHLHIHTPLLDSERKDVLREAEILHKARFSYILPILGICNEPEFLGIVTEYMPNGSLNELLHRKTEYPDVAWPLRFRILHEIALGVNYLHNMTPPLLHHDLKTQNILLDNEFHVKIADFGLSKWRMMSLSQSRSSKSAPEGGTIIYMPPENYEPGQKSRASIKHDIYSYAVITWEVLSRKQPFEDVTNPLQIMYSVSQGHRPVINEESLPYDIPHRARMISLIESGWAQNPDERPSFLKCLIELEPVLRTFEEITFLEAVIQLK

[3] = read-out: RIPK2 IC50, RIPK2 binding competition assay

Row | Structure (SMILES) | IC50 [1] | IC50 [2] | IC50 [2, 3]
1 | CCCS(=O)(=O)Nc1cc(-c2cnn3ccc(S(=O)(=O)C(C)(C)C)cc23)cc(OC)c1OC [Example 139, N-(5-(5-(tert-butylsulfonyl)pyrazolo [1,5-a]pyridin-3-yl)-2,3-dimethoxyphenyl) propane-1-sulfonamide] | 50 to 250 nM | 1 to 2.5 nM | 
2 | CCCS(=O)(=O)Nc1cc(-c2cnn3cc(OC)c(S(=O)(=O)C(C)(C)C)cc23)cc(OC)c1OC [Example 140, N-(5-(5-(tert-butylsulfonyl)-6-methoxypyrazolo[1,5-a]pyridin-3-yl)-2,3-dimethoxyphenyl) propane-1-sulfonamide] | < 50 nM |  | < 1 nM
3 | COc1cn2ncc(-c3cc(NS(C)(=O)=O)c(OC)c(OC)c3)c2cc1S(=O)(=O)C(C)(C)C [Example 141, N-(5-(5-(tert-butylsulfonyl)-6-methoxypyrazolo[1,5-a]pyridin-3-yl)-2,3-dimethoxyphenyl) methanesulfonamide] | 50 to 250 nM | 1 to 2.5 nM | 
4 | COc1cc2ncc(-c3ccc(N)c(OC(F)F)c3)n2cc1S(=O)(=O)C(C)(C)C [Example 142, 4-(6-(tert-butylsulfonyl)-7-methoxyimidazo[1,2-a]pyridin-3-yl)-2-(difluoromethoxy)aniline] | 250 to 1000 nM | 2.5 to 20 nM | 
5 | CCc1ccc(-c2cnc3cc(OC)c(S(=O)(=O)C(C)(C)C)cn23)cc1NS(C)(=O)=O [Example 143, N-(5-(6-(tert-butylsulfonyl)-7-methoxyimidazo[1,2-a]pyridin-3-yl)-2-ethylphenyl) methanesulfonamide] | > 1000 nM | 2.5 to 20 nM | 
6 | CCCS(=O)(=O)Nc1cc(-c2cnc3ccccn23)cc(F)c1OC [Example 144, N-(3-fluoro-5-(imidazo[1,2-a]pyridin-3-yl)-2-methoxyphenyl) propane-1-sulfonamide] | > 1000 nM |  | > 20 nM
7 | CCCS(=O)(=O)Nc1cc(-c2cnc3cc(OC)c(S(=O)(=O)C(C)(C)C)cn23)cc(OC(F)F)n1 [Example 145, N-(4-(6-(tert-butylsulfonyl)-7-methoxyimidazo[1,2-a]pyridin-3-yl)-6-(difluoromethoxy)pyridin-2-yl)propane-1-sulfonamide] | 250 to 1000 nM | 1 to 2.5 nM | 
8 | CCCS(=O)(=O)Nc1cc(-c2cnc3cc(OC)c(C(C)(C)O)cn23)cc(F)c1OC [Example 146, N-(3-fluoro-5-(6-(2-hydroxypropan-2-yl)-7-methoxyimidazo[1,2-a]pyridin-3-yl)-2-methoxyphenyl)propane-1-sulfonamide] | 50 to 250 nM | 1 to 2.5 nM | 
9 | COc1cc2ncc(-c3cc(F)c(OCc4ccccc4)c(NS(C)(=O)=O)c3)n2cc1S(=O)(=O)C(C)(C)C [Example 147, N-(2-(benzyloxy)-5-(6-(tert-butylsulfonyl)-7-methoxyimidazo[1,2-a]pyridin-3-yl)-3-fluorophenyl) methanesulfonamide] | > 1000 nM | > 20 nM | 
10 | COc1cc2ncc(-c3ccc(NS(C)(=O)=O)nc3)n2cc1S(=O)(=O)C(C)(C)C [Example 148, N-(5-(6-(tert-butylsulfonyl)-7-methoxyimidazo[1,2-a]pyridin-3-yl)pyridin-2-yl)methanesulfonamide] | > 1000 nM |  | > 20 nM
11 | COc1cc2ncc(-c3ccc(O)nc3)n2cc1S(=O)(=O)C(C)(C)C [Example 150, 5-(6-(tert-butylsulfonyl)-7-methoxyimidazo[1,2-a]pyridin-3-yl)pyridin-2-ol] | > 1000 nM |  | > 20 nM
12 | COc1cc2ncc(-c3cccc(S(C)(=O)=O)c3)n2cc1S(=O)(=O)C(C)(C)C [Example 151, 6-(tert-butylsulfonyl)-7-methoxy-3-(3-(methylsulfonyl)phenyl) imidazo[1,2-a]pyridine] | > 1000 nM |  | > 20 nM
13 | COc1cc2ncc(-c3ccc(S(N)(=O)=O)cc3)n2cc1S(=O)(=O)C(C)(C)C [Example 152, 4-(6-(tert-butylsulfonyl)-7-methoxyimidazo[1,2-a]pyridin-3-yl)benzenesulfonamide] | > 1000 nM |  | > 20 nM
14 | COc1cc2ncc(-c3cccc(S(N)(=O)=O)c3)n2cc1S(=O)(=O)C(C)(C)C [Example 153, 3-(6-(tert-butylsulfonyl)-7-methoxyimidazo[1,2-a]pyridin-3-yl)benzenesulfonamide] | > 1000 nM |  | > 20 nM
15 | COc1cc2ncc(-c3cc(F)c(N)nc3F)n2cc1S(=O)(=O)C(C)(C)C(F)F [Example 154, 5-(6-((1,1-difluoro-2-methylpropan-2-yl)sulfonyl)-7-methoxyimidazo[1,2-a]pyridin-3-yl)-3,6-difluoropyridin-2-amine] | 50 to 250 nM | 2.5 to 20 nM | 
16 | CCOc1cc2ncc(-c3cc(F)c(N)nc3C)n2cc1S(=O)(=O)C(C)C [Example 155, 5-(7-ethoxy-6-(isopropylsulfonyl)imidazo [1,2-a]pyridin-3-yl)-3-fluoro-6-methylpyridin-2-amine] | > 1000 nM |  | > 20 nM
17 | COc1cc2ncc(-c3cccc(CS(C)(=O)=O)c3)n2cc1S(=O)(=O)C(C)(C)C [Example 156, 6-(tert-butylsulfonyl)-7-methoxy-3-(3-((methylsulfonyl)methyl)phenyl)imidazo[1,2-a]pyridine] | > 1000 nM |  | > 20 nM

Row | Structure (SMILES) | IC50 [1] | IC50 [2] | IC50 [2, 3]
18 | COc1cc2ncc(-c3cc(N)cc(F)c3)n2cc1S(=O)(=O)C(C)(C)C [Example 157, 3-(6-(tert-butylsulfonyl)-7-methoxyimidazo[1,2-a]pyridin-3-yl)-5-fluoroaniline] | 50 to 250 nM | 2.5 to 20 nM | 
19 | COc1cc2ncc(-c3ccc(OC)c(Cl)n3)n2cc1S(=O)(=O)C(C)(C)C [Example 158, 6-(tert-butylsulfonyl)-3-(6-chloro-5-methoxypyridin-2-yl)-7-methoxyimidazo[1,2-a]pyridine] | > 1000 nM |  | > 20 nM
20 | CCCS(=O)(=O)Nc1nc(-c2cnc3cc(OC)c(S(=O)(=O)C(C)(C)C)cn23)ccc1CC [Example 160, N-(6-(6-(tert-butylsulfonyl)-7-methoxyimidazo[1,2-a]pyridin-3-yl)-3-ethylpyridin-2-yl)propane-1-sulfonamide] | > 1000 nM |  | > 20 nM
21 | CCCS(=O)(=O)Nc1cc(OC)cc(-c2cnc3cc(OC)c(S(=O)(=O)C(C)(C)C)cn23)n1 [Example 161, N-(6-(6-(tert-butylsulfonyl)-7-methoxyimidazo[1,2-a]pyridin-3-yl)-4-methoxypyridin-2-yl)propane-1-sulfonamide] | 250 to 1000 nM | 2.5 to 20 nM | 
22 | CNc1ccnc(-c2cnc3cc(OC)c(S(=O)(=O)C(C)(C)C)cn23)c1 [Example 162, 2-(6-(tert-butylsulfonyl)-7-methoxyimidazo[1,2-a]pyridin-3-yl)-N-methylpyridin-4-amine] | > 1000 nM |  | > 20 nM
23 | CCCS(=O)(=O)Nc1nc(-c2cnc3cc(OC)c(S(=O)(=O)C(C)(C)C)cn23)ccc1C [Example 163, N-(6-(6-(tert-butylsulfonyl)-7-methoxyimidazo[1,2-a]pyridin-3-yl)-3-methylpyridin-2-yl)propane-1-sulfonamide] | > 1000 nM |  | > 20 nM
24 | COc1cc2ncc(-c3cnc(N)c(F)c3F)n2cc1S(=O)(=O)C(C)(C)C [Example 164, 5-(6-(tert-butylsulfonyl)-7-methoxyimidazo[1,2-a]pyridin-3-yl)-3,4-difluoropyridin-2-amine] | > 1000 nM |  | > 20 nM
25 | COc1cc2ncc(-c3csc(N)n3)n2cc1S(=O)(=O)C(C)(C)C [Example 165, 4-(6-(tert-butylsulfonyl)-7-methoxyimidazo[1,2-a]pyridin-3-yl)thiazol-2-amine] | 250 to 1000 nM | 2.5 to 20 nM | 
26 | COc1cc2ncc(-c3cnc(N)s3)n2cc1S(=O)(=O)C(C)(C)C [Example 166, 5-(6-(tert-butylsulfonyl)-7-methoxyimidazo[1,2-a]pyridin-3-yl)thiazol-2-amine] | > 1000 nM |  | > 20 nM
27 | COc1cc2ncc(-c3cc(F)c(N)nc3O)n2cc1S(=O)(=O)C(C)(C)C [Example 167, 6-amino-3-(6-(tert-butylsulfonyl)-7-methoxyimidazo[1,2-a]pyridin-3-yl)-5-fluoropyridin-2-ol] | > 1000 nM |  | > 20 nM
28 | COc1ccc(CNc2cc(-c3cnc4ccc(S(=O)(=O)C(C)(C)C)cn34)cc(F)n2)cc1 [Example 168, 4-(6-(tert-butylsulfonyl)imidazo[1,2-a]pyridin-3-yl)-6-fluoro-N-(4-methoxybenzyl)pyridin-2-amine] | 250 to 1000 nM | 1 to 2.5 nM | 
29 | CC(C)(C)S(=O)(=O)c1ccc2ncc(-c3cc(F)nc(NCCC4(O)CCC4)c3)n2c1 [Example 171, 1-(2-((4-(6-(tert-butylsulfonyl)imidazo [1,2-a]pyridin-3-yl)-6-fluoropyridin-2-yl)amino)ethyl)cyclo-butan-1-ol] | < 50 nM | 1 to 2.5 nM | 
30 | CC(C)(O)CCNc1cc(-c2cnc3ccc(S(=O)(=O)C(C)(C)C)cn23)cc(F)n1 [Example 174, 4-((4-(6-(tert-butylsulfonyl)imidazo [1,2-a]pyridin-3-yl)-6-fluoropyridin-2-yl)amino)-2-methylbutan-2-ol] | 50 to 250 nM | 2.5 to 20 nM | 
31 | COc1cc2ncc(-c3cc(F)nc(NCc4ccccc4)c3)n2cc1S(=O)(=O)C(C)(C)C [Example 175, N-benzyl-4-(6-(tert-butylsulfonyl)-7-methoxyimidazo[1,2-a]pyridin-3-yl)-6-fluoropyridin-2-amine] | < 50 nM | < 1 nM | 
32 | COc1cc2ncc(-c3cc(F)nc(NCCC(C)(C)OC)c3)n2cc1S(=O)(=O)C(C)(C)C [Example 176, 4-(6-(tert-butylsulfonyl)-7-methoxyimidazo[1,2-a]pyridin-3-yl)-6-fluoro-N-(3-methoxy-3-methylbutyl)pyridin-2-amine] | < 50 nM |  | < 1 nM
33 | COc1cc2ncc(-c3cc(F)nc(NC(C)C)c3)n2cc1S(=O)(=O)C(C)(C)C [Example 178, 4-(6-(tert-butylsulfonyl)-7-methoxyimidazo[1,2-a]pyridin-3-yl)-6-fluoro-N-isopropylpyridin-2-amine] | < 50 nM |  | < 1 nM
